Experimental data published in the kinase profiling compilation of Christmann-Franck et al. (2016).

Experiments:
Test in all cases: radiometric filter-binding kinase assay, Kinase HotSpot
Conditions in all cases: compound 0.5 µM; ATP 10 µM
ADRBK2 (human) = ADRBK2 (human) (UniProt P35626)
CAMK2A (human) = CAMK2A (human) (UniProt Q9UQM7)
CAMK4 (human) = CAMK4 (human) (UniProt Q16566)
CAMKK1 (human) = CAMKK1 (human) (UniProt Q8N5S9)
CDK1 CCNB1 (human) = CDK1 CCNB1 (human) (UniProt P06493+P14635)
CSNK2A1 (human) = CSNK2A1 (human) (UniProt P68400)
DYRK3 (human) = DYRK3 (human) (UniProt O43781)
DYRK3 (human), sequence (O43781 whole entry, looked up): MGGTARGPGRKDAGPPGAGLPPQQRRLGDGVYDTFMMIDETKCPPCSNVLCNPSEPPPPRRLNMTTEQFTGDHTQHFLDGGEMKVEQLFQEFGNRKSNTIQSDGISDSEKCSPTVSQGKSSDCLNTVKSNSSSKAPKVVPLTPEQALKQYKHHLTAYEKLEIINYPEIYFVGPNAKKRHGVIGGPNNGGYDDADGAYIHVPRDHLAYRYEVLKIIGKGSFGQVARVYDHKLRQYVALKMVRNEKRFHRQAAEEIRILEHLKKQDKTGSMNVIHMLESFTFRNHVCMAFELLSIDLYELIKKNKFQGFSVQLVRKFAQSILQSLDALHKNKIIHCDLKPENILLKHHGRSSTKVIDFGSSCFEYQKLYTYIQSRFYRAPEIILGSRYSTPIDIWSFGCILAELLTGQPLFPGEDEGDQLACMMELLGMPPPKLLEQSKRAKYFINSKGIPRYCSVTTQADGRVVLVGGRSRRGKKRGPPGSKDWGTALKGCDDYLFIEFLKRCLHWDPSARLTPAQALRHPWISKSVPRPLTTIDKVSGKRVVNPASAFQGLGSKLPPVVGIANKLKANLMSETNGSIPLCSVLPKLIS

EPHA2 (human) = EPHA2 (human) (UniProt P29317)
EPHA3 (human) = EPHA3 (human) (UniProt P29320)
EPHA3 (human), sequence (P29320 whole entry, looked up): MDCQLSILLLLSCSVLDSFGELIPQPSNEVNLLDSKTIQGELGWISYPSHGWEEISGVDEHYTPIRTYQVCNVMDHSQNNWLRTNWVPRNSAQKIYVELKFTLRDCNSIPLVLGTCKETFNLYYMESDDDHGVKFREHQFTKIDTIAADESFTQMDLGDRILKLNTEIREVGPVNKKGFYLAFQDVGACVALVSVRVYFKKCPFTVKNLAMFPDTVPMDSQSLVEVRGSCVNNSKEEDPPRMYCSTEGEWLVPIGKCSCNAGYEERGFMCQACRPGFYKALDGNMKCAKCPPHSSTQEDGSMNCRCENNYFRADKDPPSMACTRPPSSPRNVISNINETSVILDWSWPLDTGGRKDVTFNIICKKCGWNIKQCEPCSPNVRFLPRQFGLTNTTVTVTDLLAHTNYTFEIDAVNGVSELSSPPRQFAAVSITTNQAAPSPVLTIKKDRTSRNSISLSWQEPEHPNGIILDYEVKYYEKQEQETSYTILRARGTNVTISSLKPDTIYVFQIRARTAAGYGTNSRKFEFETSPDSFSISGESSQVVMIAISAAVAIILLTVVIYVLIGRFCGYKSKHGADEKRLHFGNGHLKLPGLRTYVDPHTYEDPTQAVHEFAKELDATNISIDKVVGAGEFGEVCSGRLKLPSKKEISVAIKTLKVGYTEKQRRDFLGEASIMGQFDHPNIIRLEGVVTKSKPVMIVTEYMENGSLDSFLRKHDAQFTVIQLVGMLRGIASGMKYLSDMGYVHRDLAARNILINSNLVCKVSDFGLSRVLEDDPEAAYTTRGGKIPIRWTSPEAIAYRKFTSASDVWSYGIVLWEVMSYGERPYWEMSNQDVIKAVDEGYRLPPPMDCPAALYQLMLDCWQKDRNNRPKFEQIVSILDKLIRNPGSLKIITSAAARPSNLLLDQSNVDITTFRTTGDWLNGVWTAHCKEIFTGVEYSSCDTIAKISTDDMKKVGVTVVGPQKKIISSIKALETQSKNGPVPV

EPHA8 (human) = EPHA8 (human) (UniProt P29322)
EPHA8 (human), sequence (P29322 whole entry, looked up): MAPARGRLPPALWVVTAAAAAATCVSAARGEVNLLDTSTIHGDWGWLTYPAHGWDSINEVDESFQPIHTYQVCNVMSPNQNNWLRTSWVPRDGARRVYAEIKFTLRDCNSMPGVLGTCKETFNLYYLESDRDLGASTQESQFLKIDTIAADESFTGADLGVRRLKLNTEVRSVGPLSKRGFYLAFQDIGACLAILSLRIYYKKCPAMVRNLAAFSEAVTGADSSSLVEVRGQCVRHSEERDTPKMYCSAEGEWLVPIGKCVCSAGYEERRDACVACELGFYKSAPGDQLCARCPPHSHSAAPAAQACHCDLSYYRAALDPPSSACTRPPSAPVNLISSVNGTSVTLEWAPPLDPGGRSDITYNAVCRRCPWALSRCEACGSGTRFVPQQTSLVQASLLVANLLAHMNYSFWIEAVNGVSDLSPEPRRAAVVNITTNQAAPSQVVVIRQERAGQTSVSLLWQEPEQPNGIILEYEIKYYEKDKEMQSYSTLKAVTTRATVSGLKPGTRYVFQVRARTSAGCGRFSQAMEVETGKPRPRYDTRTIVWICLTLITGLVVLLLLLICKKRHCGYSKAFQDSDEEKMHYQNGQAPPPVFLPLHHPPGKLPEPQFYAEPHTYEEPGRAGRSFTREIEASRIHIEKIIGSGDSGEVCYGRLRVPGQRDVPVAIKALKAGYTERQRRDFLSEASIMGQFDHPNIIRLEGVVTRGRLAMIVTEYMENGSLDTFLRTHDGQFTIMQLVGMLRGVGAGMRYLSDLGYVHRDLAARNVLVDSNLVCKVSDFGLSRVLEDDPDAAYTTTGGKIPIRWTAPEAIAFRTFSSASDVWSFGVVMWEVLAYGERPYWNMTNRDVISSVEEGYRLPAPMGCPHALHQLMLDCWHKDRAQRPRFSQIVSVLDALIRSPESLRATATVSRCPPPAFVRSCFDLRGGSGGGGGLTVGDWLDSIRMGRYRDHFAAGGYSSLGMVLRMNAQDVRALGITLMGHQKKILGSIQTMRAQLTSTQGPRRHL

FGFR2 (human) = FGFR2 (human) (UniProt P21802)
GRK4 (human) = GRK4 (human) (UniProt P32298)
HIPK1 (human) = HIPK1 (human) (UniProt Q86Z02)
INSR (human) = INSR (human) (UniProt P06213)
INSRR (human) = INSRR (human) (UniProt P14616)
MAPK1 (human) = MAPK1 (human) (UniProt P28482)
MAPKAPK2 (human) = MAPKAPK2 (human) (UniProt P49137)
MARK2 (human) = MARK2 (human) (UniProt Q7KZI7)
MERTK (human) = MERTK (human) (UniProt Q12866)
MKNK2 (human) = MKNK2 (human) (UniProt Q9HBH9)
MKNK2 (human), sequence (Q9HBH9 whole entry, looked up): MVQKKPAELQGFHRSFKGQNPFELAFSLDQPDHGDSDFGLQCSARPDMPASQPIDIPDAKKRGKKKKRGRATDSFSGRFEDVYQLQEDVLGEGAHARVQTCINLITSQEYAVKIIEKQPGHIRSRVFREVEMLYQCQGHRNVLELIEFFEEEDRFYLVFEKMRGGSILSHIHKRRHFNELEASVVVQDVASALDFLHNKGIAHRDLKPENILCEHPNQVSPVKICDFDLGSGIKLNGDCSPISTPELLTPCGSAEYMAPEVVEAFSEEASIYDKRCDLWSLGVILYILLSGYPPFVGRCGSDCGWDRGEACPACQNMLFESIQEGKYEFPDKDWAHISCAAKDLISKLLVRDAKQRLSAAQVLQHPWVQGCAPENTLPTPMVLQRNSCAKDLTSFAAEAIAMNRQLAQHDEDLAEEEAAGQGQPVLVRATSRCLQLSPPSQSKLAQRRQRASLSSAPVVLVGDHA

MYLK (human) = MYLK (human) (UniProt Q15746)
MYLK2 (human) = MYLK2 (human) (UniProt Q9H1R3)
NEK2 (human) = NEK2 (human) (UniProt P51955)
NEK9 (human) = NEK9 (human) (UniProt Q8TD19)
NLK (human) = NLK (human) (UniProt Q9UBE8)
NUAK2 (human) = NUAK2 (human) (UniProt Q9H093)
PAK1 (human) = PAK1 (human) (UniProt Q13153)
PAK2 (human) = PAK2 (human) (UniProt Q13177)
PAK4 (human) = PAK4 (human) (UniProt O96013)
PIM3 (human) = PIM3 (human) (UniProt Q86V86)
PRKCG (human) = PRKCG (human) (UniProt P05129)
PTK6 (human) = PTK6 (human) (UniProt Q13882)
RAF1 (human) = RAF1 (human) (UniProt P04049)
RET (human) = RET (human) (UniProt P07949)
ROCK1 (human) = ROCK1 (human) (UniProt Q13464)
RPS6KA1 KD1 KD2 (human) = RPS6KA1 KD1 KD2 (human) (UniProt Q15418)
RPS6KA1 KD1 KD2 (human), sequence (Q15418 whole entry, looked up): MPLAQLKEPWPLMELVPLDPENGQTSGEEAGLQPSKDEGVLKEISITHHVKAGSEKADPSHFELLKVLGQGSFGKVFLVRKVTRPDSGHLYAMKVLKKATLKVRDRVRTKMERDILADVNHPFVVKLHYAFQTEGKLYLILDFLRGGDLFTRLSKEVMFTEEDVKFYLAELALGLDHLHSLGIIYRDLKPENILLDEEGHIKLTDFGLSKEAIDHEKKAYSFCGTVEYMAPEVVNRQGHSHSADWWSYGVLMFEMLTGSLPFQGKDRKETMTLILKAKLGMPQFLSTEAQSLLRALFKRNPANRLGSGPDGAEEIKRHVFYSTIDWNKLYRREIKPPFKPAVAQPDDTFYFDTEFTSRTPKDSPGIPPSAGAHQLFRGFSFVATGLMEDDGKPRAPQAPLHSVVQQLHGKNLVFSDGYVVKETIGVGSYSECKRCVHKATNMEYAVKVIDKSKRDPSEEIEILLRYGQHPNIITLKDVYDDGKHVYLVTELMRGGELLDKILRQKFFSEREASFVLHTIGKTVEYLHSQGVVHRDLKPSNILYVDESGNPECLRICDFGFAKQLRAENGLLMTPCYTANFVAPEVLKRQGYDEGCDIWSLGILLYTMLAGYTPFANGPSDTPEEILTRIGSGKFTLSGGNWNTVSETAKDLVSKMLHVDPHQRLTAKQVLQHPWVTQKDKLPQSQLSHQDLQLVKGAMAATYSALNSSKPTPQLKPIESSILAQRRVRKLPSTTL

SGK3 (human) = SGK3 (human) (UniProt Q96BR1)
SGK3 (human), sequence (Q96BR1 whole entry, looked up): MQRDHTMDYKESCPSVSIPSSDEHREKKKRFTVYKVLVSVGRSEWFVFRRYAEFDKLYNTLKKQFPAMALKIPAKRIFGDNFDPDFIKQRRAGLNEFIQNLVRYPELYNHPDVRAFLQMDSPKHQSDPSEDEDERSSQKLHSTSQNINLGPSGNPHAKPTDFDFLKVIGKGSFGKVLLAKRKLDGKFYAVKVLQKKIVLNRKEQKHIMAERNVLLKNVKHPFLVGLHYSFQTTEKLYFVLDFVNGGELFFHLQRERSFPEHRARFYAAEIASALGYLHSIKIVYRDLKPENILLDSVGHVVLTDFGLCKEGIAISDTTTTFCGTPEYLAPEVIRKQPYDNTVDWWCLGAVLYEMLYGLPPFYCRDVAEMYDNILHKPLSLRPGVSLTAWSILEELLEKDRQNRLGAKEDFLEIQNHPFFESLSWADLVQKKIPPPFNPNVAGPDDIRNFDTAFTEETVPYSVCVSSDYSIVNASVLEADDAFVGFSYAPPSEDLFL

SRPK2 (human) = SRPK2 (human) (UniProt P78362)
STK17A (human) = STK17A (human) (UniProt Q9UEE5)
STK17A (human), sequence (Q9UEE5 whole entry, looked up): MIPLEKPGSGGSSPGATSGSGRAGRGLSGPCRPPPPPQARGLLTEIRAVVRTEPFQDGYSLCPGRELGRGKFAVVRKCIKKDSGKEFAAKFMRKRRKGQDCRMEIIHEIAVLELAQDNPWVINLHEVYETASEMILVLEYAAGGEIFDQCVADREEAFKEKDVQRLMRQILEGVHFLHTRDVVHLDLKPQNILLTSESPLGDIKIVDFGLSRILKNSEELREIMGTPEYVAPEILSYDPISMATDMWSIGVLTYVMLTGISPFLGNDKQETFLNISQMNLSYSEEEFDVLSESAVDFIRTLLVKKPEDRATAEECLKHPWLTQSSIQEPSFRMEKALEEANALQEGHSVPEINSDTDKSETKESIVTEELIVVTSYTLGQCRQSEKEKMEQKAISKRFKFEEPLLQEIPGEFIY

TAOK3 (human) = TAOK3 (human) (UniProt Q9H2K8)
TTK (human) = TTK (human) (UniProt P33981)
ULK2 (human) = ULK2 (human) (UniProt Q8IYT8)

Structure (SMILES): CN([C@@H](Cc1ccc(OS(=O)(=O)c2cccc3cnccc23)cc1)C(=O)N1CCN(c2ccccc2)CC1)S(=O)(=O)c1cccc2cnccc12
- residual activity (ADRBK2 (human)): 113%
- residual activity (CAMK2A (human)): 107%
- residual activity (CAMK4 (human)): 102%
- residual activity (CAMKK1 (human)): 108%
- residual activity (CDK1 CCNB1 (human)): 108%
- residual activity (CSNK2A1 (human)): 100%
- residual activity (DYRK3 (human)): 112%
- residual activity (EPHA2 (human)): 101%
- residual activity (EPHA3 (human)): 102%
- residual activity (EPHA8 (human)): 99.6%
- residual activity (FGFR2 (human)): 98.1%
- residual activity (GRK4 (human)): 96.5%
- residual activity (HIPK1 (human)): 110%
- residual activity (INSR (human)): 98.8%
- residual activity (INSRR (human)): 94.9%
- residual activity (MAPK1 (human)): 95.5%
- residual activity (MAPKAPK2 (human)): 103%
- residual activity (MARK2 (human)): 103%
- residual activity (MERTK (human)): 100%
- residual activity (MKNK2 (human)): 104%
- residual activity (MYLK (human)): 98.2%
- residual activity (MYLK2 (human)): 98.8%
- residual activity (NEK2 (human)): 87.4%
- residual activity (NEK9 (human)): 97.6%
- residual activity (NLK (human)): 106%
- residual activity (NUAK2 (human)): 88.7%
- residual activity (PAK1 (human)): 95.7%
- residual activity (PAK2 (human)): 99.1%
- residual activity (PAK4 (human)): 94.6%
- residual activity (PIM3 (human)): 113%
- residual activity (PRKCG (human)): 95.4%
- residual activity (PTK6 (human)): 89.7%
- residual activity (RAF1 (human)): 96.9%
- residual activity (RET (human)): 105%
- residual activity (ROCK1 (human)): 97.9%
- residual activity (RPS6KA1 KD1 KD2 (human)): 109%
- residual activity (SGK3 (human)): 104%
- residual activity (SRPK2 (human)): 99.4%
- residual activity (STK17A (human)): 104%
- residual activity (TAOK3 (human)): 89.9%
- residual activity (TTK (human)): 86%
- residual activity (ULK2 (human)): 106%

Structure (SMILES): O=C(O)/C=C/c1cc(Br)c(Br)c(Br)c1Br
- residual activity (ADRBK2 (human)): 94.3%
- residual activity (CAMK2A (human)): 64.4%
- residual activity (CAMK4 (human)): 103%
- residual activity (CAMKK1 (human)): 105%
- residual activity (CDK1 CCNB1 (human)): 62.7%
- residual activity (CSNK2A1 (human)): 13.1%
- residual activity (DYRK3 (human)): 100%
- residual activity (EPHA2 (human)): 97.9%
- residual activity (EPHA3 (human)): 92.3%
- residual activity (EPHA8 (human)): 99.1%
- residual activity (FGFR2 (human)): 99.5%
- residual activity (GRK4 (human)): 101%
- residual activity (HIPK1 (human)): 99.6%
- residual activity (INSR (human)): 98.6%
- residual activity (INSRR (human)): 88.2%
- residual activity (MAPK1 (human)): 98.5%
- residual activity (MAPKAPK2 (human)): 91.5%
- residual activity (MARK2 (human)): 82.1%
- residual activity (MERTK (human)): 92.4%
- residual activity (MKNK2 (human)): 53.8%
- residual activity (MYLK (human)): 83.3%
- residual activity (MYLK2 (human)): 86.8%
- residual activity (NEK2 (human)): 92%
- residual activity (NEK9 (human)): 94.7%
- residual activity (NLK (human)): 99.1%
- residual activity (NUAK2 (human)): 98.9%
- residual activity (PAK1 (human)): 105%
- residual activity (PAK2 (human)): 83.2%
- residual activity (PAK4 (human)): 104%
- residual activity (PIM3 (human)): 17.7%
- residual activity (PRKCG (human)): 89.4%
- residual activity (PTK6 (human)): 95%
- residual activity (RAF1 (human)): 91.3%
- residual activity (RET (human)): 76.4%
- residual activity (ROCK1 (human)): 97.6%
- residual activity (RPS6KA1 KD1 KD2 (human)): 90.5%
- residual activity (SGK3 (human)): 85.7%
- residual activity (SRPK2 (human)): 62%
- residual activity (STK17A (human)): 84.6%
- residual activity (TAOK3 (human)): 85.3%
- residual activity (TTK (human)): 98.1%
- residual activity (ULK2 (human)): 80.3%
